Measurements reported in the supplement of paper PMC10307832.

These cell lines were tested with COc1cccc2cc(-c3nc([C@H]4CC[C@H](C(=O)O)CC4)n4ncnc(N)c34)[nH]c12 [OSI-027] + CC(=O)Nc1cccc(-n2c(=O)n(C3CC3)c(=O)c3c(Nc4ccc(I)cc4F)n(C)c(=O)c(C)c32)c1 [Trametinib] (partner 0.02 µM) (assay: relative viability (nuclei count vs DMSO), 5 days (fraction); higher = more cells survive). Conditions: first compound 0.01 µM.
Method in brief: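 Dosing by pin tool came one day after lung cancer cell lines were seeded in 1536-well plates, using either one drug or a fixed anchor-drug dose plus five library-drug doses (not always all listed) in √10 steps. After 5 days, nuclei were counted on 4× images. Relative viability is treated-well nuclei count divided by vehicle-well nuclei count, and values are medians of duplicate plates.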
NCI-H1915 was tested, and the relative viability was 0.284. NCI-H838 was tested, and the relative viability was 0.455. With A-427 the relative viability was 0.721. NCI-H2009 showed a relative viability of 0.272. Cell Line EKVX has a relative viability of 0.413. Work on NCI-H2087 yielded a relative viability of 0.194. Cell Line NCI-H1734 has a relative viability of 0.667. For LCLC-103H, the relative viability was 0.708. With LU99A the relative viability was 0.581. For NCI-H460, the relative viability was 0.152. NCI-H2170 showed a relative viability of 1.02. In the case of SK-LU-1, the relative viability is reported as 0.458. In the case of NCI-H522, the relative viability is reported as 0.691. With COR-L23 the relative viability was 0.571. In the case of HCC-15, the relative viability is reported as 0.317. For NCI-H1944, the relative viability was 0.379. EMC-BAC-2 was tested, and the relative viability was 0.857. NCI-H1792 showed a relative viability of 0.528. For NCI-H1395, the relative viability was 1.1. In the case of LC-2-ad, the relative viability is reported as 0.903. Work on NCI-H2085 yielded a relative viability of 0.504. In the case of NCI-H727, the relative viability is reported as 0.346. NCI-H647 showed a relative viability of 0.367. HARA gave a relative viability of 0.719. In the case of NCI-H3122, the relative viability is reported as 0.273. NCI-H358 gave a relative viability of 0.114. With CAL-12T the relative viability was 0.315. COR-L 105 gave a relative viability of 0.406. For LCLC-97TM1, the relative viability was 0.168. In the case of NCI-H520, the relative viability is reported as 0.644. NCI-H2228 was tested, and the relative viability was 0.409.

Same assay, conditions: first compound 0.03162 µM
With NCI-H1915 the relative viability was 0.299. In the case of NCI-H838, the relative viability is reported as 0.532. In the case of A-427, the relative viability is reported as 0.747. NCI-H2009 was tested, and the relative viability was 0.283. For EKVX, the relative viability was 0.359. In the case of NCI-H2087, the relative viability is reported as 0.235. NCI-H1734 gave a relative viability of 0.687. In the case of LCLC-103H, the relative viability is reported as 0.645. Cell Line LU99A has a relative viability of 0.508. NCI-H460 was tested, and the relative viability was 0.13. Work on NCI-H2170 yielded a relative viability of 0.901. SK-LU-1 showed a relative viability of 0.491. Cell Line NCI-H522 has a relative viability of 0.709. COR-L23 showed a relative viability of 0.639. Work on HCC-15 yielded a relative viability of 0.365. NCI-H1944 gave a relative viability of 0.399. For EMC-BAC-2, the relative viability was 0.927. Work on NCI-H1792 yielded a relative viability of 0.303. NCI-H1395 gave a relative viability of 1.02. For LC-2-ad, the relative viability was 0.872. For NCI-H2085, the relative viability was 0.514. Cell Line NCI-H727 has a relative viability of 0.412. NCI-H647 showed a relative viability of 0.395. With HARA the relative viability was 0.616. Work on NCI-H3122 yielded a relative viability of 0.238. In the case of NCI-H358, the relative viability is reported as 0.129. In the case of CAL-12T, the relative viability is reported as 0.334. COR-L 105 gave a relative viability of 0.396. Cell Line LCLC-97TM1 has a relative viability of 0.182. NCI-H520 gave a relative viability of 0.606. Cell Line NCI-H2228 has a relative viability of 0.499.

Same assay, conditions: first compound 0.1 µM
For NCI-H1915, the relative viability was 0.262. In the case of NCI-H838, the relative viability is reported as 0.436. A-427 gave a relative viability of 0.574. For NCI-H2009, the relative viability was 0.2. EKVX showed a relative viability of 0.3. NCI-H2087 was tested, and the relative viability was 0.194. For NCI-H1734, the relative viability was 0.659. LCLC-103H gave a relative viability of 0.65. In the case of LU99A, the relative viability is reported as 0.424. NCI-H460 showed a relative viability of 0.145. NCI-H2170 was tested, and the relative viability was 0.807. In the case of SK-LU-1, the relative viability is reported as 0.457. Cell Line NCI-H522 has a relative viability of 0.725. COR-L23 gave a relative viability of 0.525. HCC-15 showed a relative viability of 0.352. With NCI-H1944 the relative viability was 0.405. EMC-BAC-2 showed a relative viability of 0.816. Work on NCI-H1792 yielded a relative viability of 0.412. For NCI-H1395, the relative viability was 0.957. For LC-2-ad, the relative viability was 0.945. In the case of NCI-H2085, the relative viability is reported as 0.429. Cell Line NCI-H727 has a relative viability of 0.349. Work on NCI-H647 yielded a relative viability of 0.438. HARA gave a relative viability of 0.556. NCI-H3122 showed a relative viability of 0.178. For NCI-H358, the relative viability was 0.123. Cell Line CAL-12T has a relative viability of 0.336. COR-L 105 was tested, and the relative viability was 0.394. For LCLC-97TM1, the relative viability was 0.157. With NCI-H520 the relative viability was 0.563. NCI-H2228 gave a relative viability of 0.507.

Same assay, conditions: first compound 0.3162 µM
Work on NCI-H1915 yielded a relative viability of 0.233. NCI-H838 was tested, and the relative viability was 0.317. A-427 was tested, and the relative viability was 0.437. Cell Line NCI-H2009 has a relative viability of 0.196. EKVX showed a relative viability of 0.293. For NCI-H2087, the relative viability was 0.154. NCI-H1734 showed a relative viability of 0.586. LCLC-103H showed a relative viability of 0.609. In the case of LU99A, the relative viability is reported as 0.342. With NCI-H460 the relative viability was 0.129. NCI-H2170 showed a relative viability of 0.746. SK-LU-1 showed a relative viability of 0.334. In the case of NCI-H522, the relative viability is reported as 0.632. Cell Line COR-L23 has a relative viability of 0.485. HCC-15 was tested, and the relative viability was 0.283. With NCI-H1944 the relative viability was 0.355. EMC-BAC-2 was tested, and the relative viability was 0.797. Cell Line NCI-H1792 has a relative viability of 0.408. With NCI-H1395 the relative viability was 0.863. For LC-2-ad, the relative viability was 0.927. With NCI-H2085 the relative viability was 0.313. NCI-H727 was tested, and the relative viability was 0.387. NCI-H647 showed a relative viability of 0.385. Work on HARA yielded a relative viability of 0.398. Cell Line NCI-H3122 has a relative viability of 0.191. NCI-H358 gave a relative viability of 0.112. CAL-12T gave a relative viability of 0.235. COR-L 105 was tested, and the relative viability was 0.376. Work on LCLC-97TM1 yielded a relative viability of 0.147. In the case of NCI-H520, the relative viability is reported as 0.379. NCI-H2228 showed a relative viability of 0.326.

Same assay, conditions: first compound 1 µM
NCI-H1915 showed a relative viability of 0.314. For NCI-H838, the relative viability was 0.206. Work on A-427 yielded a relative viability of 0.329. For NCI-H2009, the relative viability was 0.195. Cell Line EKVX has a relative viability of 0.313. Work on NCI-H2087 yielded a relative viability of 0.142. NCI-H1734 gave a relative viability of 0.42. In the case of LCLC-103H, the relative viability is reported as 0.689. With LU99A the relative viability was 0.209. NCI-H460 was tested, and the relative viability was 0.12. In the case of NCI-H2170, the relative viability is reported as 0.267. For SK-LU-1, the relative viability was 0.327. For NCI-H522, the relative viability was 0.463. With COR-L23 the relative viability was 0.254. Work on HCC-15 yielded a relative viability of 0.238. Work on NCI-H1944 yielded a relative viability of 0.298. EMC-BAC-2 showed a relative viability of 0.503. In the case of NCI-H1792, the relative viability is reported as 0.219. NCI-H1395 gave a relative viability of 0.648. LC-2-ad showed a relative viability of 0.694. For NCI-H2085, the relative viability was 0.281. NCI-H727 showed a relative viability of 0.395. For NCI-H647, the relative viability was 0.236. HARA was tested, and the relative viability was 0.386. NCI-H3122 showed a relative viability of 0.097. In the case of NCI-H358, the relative viability is reported as 0.117. CAL-12T gave a relative viability of 0.242. COR-L 105 gave a relative viability of 0.459. LCLC-97TM1 gave a relative viability of 0.168.
